The results in this text go back to ChEMBL document CHEMBL4265996, “Genetically-encoded fragment-based discovery of glycopeptide ligands for DC-SIGN” (Bioorg Med Chem, 2018).

For experiment [1], the target named is T1, CD209 antigen (Homo sapiens, UniProt Q9NNX6).
T1 sequence (Q9NNX6 whole entry): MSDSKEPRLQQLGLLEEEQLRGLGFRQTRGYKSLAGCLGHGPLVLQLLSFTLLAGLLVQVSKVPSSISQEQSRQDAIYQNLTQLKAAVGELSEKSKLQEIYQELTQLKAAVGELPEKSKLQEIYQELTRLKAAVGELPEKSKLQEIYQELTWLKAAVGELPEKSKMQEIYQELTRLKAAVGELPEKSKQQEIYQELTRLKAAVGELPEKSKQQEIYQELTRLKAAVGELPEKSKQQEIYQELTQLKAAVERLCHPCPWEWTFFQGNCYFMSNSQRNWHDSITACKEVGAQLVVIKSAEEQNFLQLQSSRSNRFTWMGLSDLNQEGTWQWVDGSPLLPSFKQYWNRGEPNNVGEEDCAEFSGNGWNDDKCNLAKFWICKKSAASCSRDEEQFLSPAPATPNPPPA
The experiment is described as follows: Inhibition of binding of trimannoside containing horseradish peroxidase to DC-SIGN carbohydrate binding domain (unknown origin) expressed in Escherichia coli preincubated for 1 hr followed by TMB substrate addition measured after 30 mins by ELISA. (An ELISA detects its analyte on a solid surface through an enzyme-linked reagent.)

Experiment [2] has as its target T1, CD209 antigen. The experiment is described as follows: Binding affinity to DC-SIGN extracellular domain (unknown origin) expressed in Escherichia coli after 1 hr by ELISA.
The target of experiment [3] is C-type lectin domain family 4 member K (Homo sapiens) (UniProt Q9UJ71). The experiment is described as follows: Binding affinity to human langerin expressed in human Raji cells preincubated with Cy5 conjugated compound for 2 hrs followed by washing and measured by flow cytometric analysis. The format is cell-based. A general note: Flow cytometry measures light scatter and fluorescence of single cells or particles in a stream.
Chain of C-type lectin domain family 4 member K (Homo sapiens) (Q9UJ71 whole entry, the tested form may be a part): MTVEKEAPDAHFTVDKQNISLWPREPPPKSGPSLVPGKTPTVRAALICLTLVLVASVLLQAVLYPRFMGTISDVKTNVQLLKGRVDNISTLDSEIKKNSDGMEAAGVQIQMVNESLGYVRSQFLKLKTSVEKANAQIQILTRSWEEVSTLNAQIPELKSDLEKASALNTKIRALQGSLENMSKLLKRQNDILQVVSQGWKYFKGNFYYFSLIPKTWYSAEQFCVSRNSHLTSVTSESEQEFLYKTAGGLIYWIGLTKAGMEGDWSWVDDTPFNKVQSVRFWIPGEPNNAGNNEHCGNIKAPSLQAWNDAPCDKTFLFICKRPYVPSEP

The target in experiment [4] is T2, CD209 antigen (Homo sapiens) (UniProt Q9NNX6).
T2 sequence (whole entry): T1 sequence (Q9NNX6 whole entry)
The experiment is described as follows: Binding affinity to recombinant human DC-SIGN expressed in rat-6 fibroblast preincubated with Cy5 conjugated compound for 2 hrs followed by washing and measured by flow cytometric analysis.

Experiment [5] has as its target T2, CD209 antigen (Homo sapiens). The experiment is described as follows: Binding affinity to recombinant human DC-SIGN expressed in human Raji cells preincubated with Cy5 conjugated compound for 2 hrs followed by washing and measured by flow cytometric analysis. It is filed as cell-based.
Experiment [6] is described as follows: Binding affinity to ConA […] after 1 hr by ELISA.

Molecules are shown by their SMILES. Calls of active or inactive are those of the source. The calls are words filed in the database; no cut-off is given here. Where a SMILES comes first, the peptide text is derived from it. The star is where a group is joined. X1 = O=C(/C=N/O[C@H]1O[C@H](CO)[C@@H](O)[C@H](O)[C@@H]1O)*; X2 = O=C(/C=N/O[C@H]1O[C@H](CO)[C@H](O)[C@H](O)[C@H]1O)* Some results are limits rather than exact numbers.

The IC50 is the concentration that inhibits the measured activity by half. The low end stands for greater potency in that assay, the high end for weaker potency in that assay. Turning to `OC[C@H]1O[C@H](O)[C@@H](O)[C@@H](O)[C@@H]1O`, the IC50 at CD209 antigen [1] came out at 6.4 mM. On the same count and under the same terms, in the case of `[N-]=[N+]=NCCCCCCO[C@H]1O[C@H](CO[C@H]2O[C@H](CO)[C@@H](O)[C@H](O)[C@@H]2O)[C@@H](O)[C@H](O[C@H]2O[C@H](CO)[C@@H](O)[C@H](O)[C@@H]2O)[C@@H]1O` it was 1.4 mM. In the case of `CSCC[C@H](NC(=O)/C=N/O[C@H]1O[C@H](CO)[C@@H](O)[C@H](O)[C@@H]1O)C(=O)N1CCC[C@H]1C(=O)N[C@@H](C)C(=O)N[C@@H](Cc1c[nH]c2ccccc12)C(=O)N[C@@H](CCCNC(=N)N)C(=O)N[C@@H](Cc1cnc[nH]1)C(=O)N[C@@H](C)C(N)=O` (X1-MPAWRHA-NH2), the EC50 is 4 ×10⁸ PFU on CD209 antigen [2] and above 1 ×10¹¹ PFU in experiment [6]. In addition, the outcome in experiment [3] was inactive. For the same compound, the outcome in experiment [4] and in experiment [5] was Active. As for `CC(C)[C@H](NC(=O)/C=N/O[C@H]1O[C@H](CO)[C@@H](O)[C@H](O)[C@@H]1O)C(=O)N[C@@H](CCC(=O)O)C(=O)N[C@@H](CCCCN)C(=O)N[C@@H](CC(N)=O)C(=O)N[C@@H](CC(=O)O)C(=O)N[C@@H](CCC(N)=O)C(=O)N[C@@H](CCCCN)C(=O)N[C@H](C(=O)N[C@@H](Cc1ccc(O)cc1)C(=O)N[C@@H](Cc1cnc[nH]1)C(=O)N[C@@H](C)C(N)=O)[C@@H](C)O` (X1-VEKNDQKTYHA-NH2), the EC50 at CD209 antigen [2] is 2.6 ×10¹¹ PFU; in experiment [6], above 1 ×10¹¹ PFU. For the same compound, the outcome in experiment [4] was inactive. In turn, `CSCC[C@H](NC(=O)/C=N/O[C@H]1O[C@H](CO)[C@H](O)[C@H](O)[C@H]1O)C(=O)N1CCC[C@H]1C(=O)N[C@@H](C)C(=O)N[C@@H](Cc1c[nH]c2ccccc12)C(=O)N[C@@H](CCCNC(=N)N)C(=O)N[C@@H](Cc1cnc[nH]1)C(=O)N[C@@H](C)C(N)=O` (X2-MPAWRHA-NH2) yielded an EC50 on CD209 antigen [2] of 3.7 ×10¹⁰ PFU. The same measure, in the same setting: the value for `CC(C)[C@H](NC(=O)/C=N/O[C@H]1O[C@H](CO)[C@H](O)[C@H](O)[C@H]1O)C(=O)N[C@@H](CCC(=O)O)C(=O)N[C@@H](CCCCN)C(=O)N[C@@H](CC(N)=O)C(=O)N[C@@H](CC(=O)O)C(=O)N[C@@H](CCC(N)=O)C(=O)N[C@@H](CCCCN)C(=O)N[C@H](C(=O)N[C@@H](Cc1ccc(O)cc1)C(=O)N[C@@H](Cc1cnc[nH]1)C(=O)N[C@@H](C)C(N)=O)[C@@H](C)O` (X2-VEKNDQKTYHA-NH2) was 2 ×10¹¹ PFU. For `CC[C@H](C)[C@H](NC(=O)[C@H](CO)NC(=O)[C@H](CO)NC(=O)/C=N/O[C@H]1O[C@H](CO)[C@@H](O)[C@H](O)[C@@H]1O)C(=O)N[C@H](C(=O)N[C@@H](Cc1cnc[nH]1)C(=O)N[C@@H](C)C(=O)N1CCC[C@H]1C(=O)N[C@@H](CO)C(N)=O)[C@@H](C)O` (stereo in doubt), the EC50 is given as 2.8 ×10⁹ PFU at CD209 antigen [2] and above 1 ×10¹¹ PFU in experiment [6]. As for `CC(C)C[C@H](NC(=O)[C@H](CC(=O)O)NC(=O)[C@H](Cc1ccc(O)cc1)NC(=O)[C@H](Cc1c[nH]c2ccccc12)NC(=O)/C=N/OCCO[C@H]1O[C@H](CO)[C@@H](O)[C@H](O)[C@@H]1O)C(=O)N[C@@H](Cc1ccc(O)cc1)C(=O)N[C@@H](Cc1cnc[nH]1)C(N)=O` (stereo in doubt), the EC50 in experiment [6] turned out to be 2.9 ×10⁹ PFU. Regarding `CC[C@H](C)[C@H](NC(=O)[C@H](CO)NC(=O)/C=N/O[C@H]1O[C@H](CO)[C@@H](O)[C@H](O)[C@@H]1O)C(=O)N[C@H](C(=O)N[C@@H](Cc1cnc[nH]1)C(=O)N[C@@H](C)C(=O)N1CCC[C@H]1C(=O)N[C@@H](CO)C(N)=O)[C@@H](C)O` (stereo in doubt), at CD209 antigen [1], the half-inhibitory concentration (IC50) is 0.45 mM.
